Measurements published in PubChem BioAssay AID1963973 (Molecular Pharmacology Branch, DTP, NCI, 2024).

Test system: 883617-216-R-J1-PDC tumor spheroids, viability
Assay: Anticancer human tumor 883617-216-R-J1-PDC patient-derived bladder carcinoma cell line growth inhibition [PI3K]
Conditions: spheroids with HUVEC and MSC; for viability, T/C: stronger effect = lower value
Outline: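 High-throughput combination screen: PI3K inhibitors crossed with targeted small molecules on complex spheroids of tumor cells, HUVEC and MSCs at 37 degrees C, 5% CO2. Top concentration was at or near clinical Cmax (otherwise 10 microM), with half-log decrements.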

[1] = curve of first compound, second compound 0.0316 µM
[2] = curve of first compound, second compound 0.1 µM
[3] = curve of first compound, second compound 0.316 µM
[4] = curve of first compound, second compound 1 µM
[5] = curve of first compound, second compound 3.16 µM
[6] = curve of first compound, second compound 10 µM
[7] = second compound 0.0316 µM, first compound 0.0316 µM
[8] = second compound 0.0316 µM, first compound 0.1 µM
[9] = second compound 0.0316 µM, first compound 0.316 µM
[10] = second compound 0.0316 µM, first compound 1 µM
[11] = second compound 0.0316 µM, first compound 3.16 µM
[12] = second compound 0.0316 µM, first compound 10 µM
[13] = second compound 0.1 µM, first compound 0.0316 µM
[14] = second compound 0.1 µM, first compound 0.1 µM
[15] = second compound 0.1 µM, first compound 0.316 µM
[16] = second compound 0.1 µM, first compound 1 µM
[17] = second compound 0.1 µM, first compound 3.16 µM
[18] = second compound 0.1 µM, first compound 10 µM
[19] = second compound 0.316 µM, first compound 0.0316 µM
[20] = second compound 0.316 µM, first compound 0.1 µM
[21] = second compound 0.316 µM, first compound 0.316 µM
[22] = second compound 0.316 µM, first compound 1 µM
[23] = second compound 0.316 µM, first compound 3.16 µM
[24] = second compound 0.316 µM, first compound 10 µM
[25] = second compound 1 µM, first compound 0.0316 µM
[26] = second compound 1 µM, first compound 0.1 µM
[27] = second compound 1 µM, first compound 0.316 µM
[28] = second compound 1 µM, first compound 1 µM
[29] = second compound 1 µM, first compound 3.16 µM
[30] = second compound 1 µM, first compound 10 µM
[31] = second compound 3.16 µM, first compound 0.0316 µM
[32] = second compound 3.16 µM, first compound 0.1 µM
[33] = second compound 3.16 µM, first compound 0.316 µM
[34] = second compound 3.16 µM, first compound 1 µM
[35] = second compound 3.16 µM, first compound 3.16 µM
[36] = second compound 3.16 µM, first compound 10 µM
[37] = second compound 10 µM, first compound 0.0316 µM
[38] = second compound 10 µM, first compound 0.1 µM
[39] = second compound 10 µM, first compound 0.316 µM
[40] = second compound 10 µM, first compound 1 µM
[41] = second compound 10 µM, first compound 3.16 µM
[42] = second compound 10 µM, first compound 10 µM
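Note: spheroids exposed to agents for 7 days before the viability read.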

For `CC(Cn1ccc(-c2ccc(C#N)c(Cl)c2)n1)NC(=O)c1cc(C(C)O)[nH]n1` (stereo not drawn) + CC(Nc1ncnc2nc[nH]c12)c1cc2cccc(Cl)c2c(=O)n1-c1ccccc1, the IC50 [1] was over 10 µM, the IC50 [2] was over 10 µM and the IC50 [3] was over 10 µM. It also gave an IC50 [4] of over 10 µM, an IC50 [5] of over 10 µM and an IC50 [6] of under 0.0316 µM. For the same molecule, the viability, T/C [7] was 98.1%, the viability, T/C [8] was 104% and the viability, T/C [9] was 90.5%. For the same molecule, the viability, T/C [10] was 103%, the viability, T/C [11] was 103% and the viability, T/C [12] was 95.3%. For the same molecule, the viability, T/C [13] was 94.5%, the viability, T/C [14] was 84.7% and the viability, T/C [15] was 84.6%. It also gave a viability, T/C [16] of 100%, a viability, T/C [17] of 95.3% and a viability, T/C [18] of 97%. The viability, T/C [19] was 95.8%, the viability, T/C [20] was 92.9% and the viability, T/C [21] was 90.7%. For the same molecule, the viability, T/C [22] was 97.9%, the viability, T/C [23] was 95.5% and the viability, T/C [24] was 90.7%. It also gave a viability, T/C [25] of 78.3%, a viability, T/C [26] of 77.1% and a viability, T/C [27] of 78.3%. For the same molecule, the viability, T/C [28] was 86.9%, the viability, T/C [29] was 90.8% and the viability, T/C [30] was 76.8%. It also gave a viability, T/C [31] of 76.7%, a viability, T/C [32] of 70.9% and a viability, T/C [33] of 61.2%. The viability, T/C [34] was 61%, the viability, T/C [35] was 68.1% and the viability, T/C [36] was 74.2%. The viability, T/C [37] was 52.9%, the viability, T/C [38] was 43.1% and the viability, T/C [39] was 44.6%. The viability, T/C [40] was 51.4%, the viability, T/C [41] was 43.7% and the viability, T/C [42] was 50%.

With `CC(Nc1ccc2c(c1)OCCn1cc(N3C(=O)OCC3C(F)F)nc1-2)C(N)=O` (stereo not drawn) the viability, T/C (compound 0.00316 µM) was 96.5% [middle of 8 runs], the viability, T/C (compound 0.01 µM) was 91.7% [middle of 8 runs] and the viability, T/C (compound 0.0316 µM) was 71.5% [middle of 8 runs]. The viability, T/C (compound 0.1 µM) was 40.2% [middle of 8 runs], the viability, T/C (compound 0.316 µM) was 29.8% [middle of 8 runs] and the viability, T/C (compound 1 µM) was 18.9% [middle of 8 runs]. The IC50 (compound alone, run of 04/24/2023) was 72 nM [middle of 8 runs].

For `Cn1nccc1Nc1nccc(-c2ccn(C(CO)c3ccc(Cl)c(F)c3)c(=O)c2)n1` (stereo not drawn) + CC(Nc1ncnc2nc[nH]c12)c1cc2cccc(Cl)c2c(=O)n1-c1ccccc1, the IC50 [1] was 7.98 µM, the IC50 [2] was 5.28 µM and the IC50 [3] was 7.48 µM. The IC50 [4] was 4.18 µM, the IC50 [5] was 0.764 µM and the IC50 [6] was under 0.0316 µM. For the same molecule, the viability, T/C [7] was 100%, the viability, T/C [8] was 90.3% and the viability, T/C [9] was 72.5%. It also gave a viability, T/C [10] of 67.4%, a viability, T/C [11] of 66.5% and a viability, T/C [12] of 43.5%. The viability, T/C [13] was 87.3%, the viability, T/C [14] was 86.8% and the viability, T/C [15] was 70.1%. It also gave a viability, T/C [16] of 62.6%, a viability, T/C [17] of 65.3% and a viability, T/C [18] of 38.6%. It also gave a viability, T/C [19] of 88.4%, a viability, T/C [20] of 71.2% and a viability, T/C [21] of 71.2%. The viability, T/C [22] was 66.8%, the viability, T/C [23] was 64% and the viability, T/C [24] was 44%. The viability, T/C [25] was 77.9%, the viability, T/C [26] was 74.6% and the viability, T/C [27] was 64.5%. For the same molecule, the viability, T/C [28] was 61%, the viability, T/C [29] was 52% and the viability, T/C [30] was 43.6%. It also gave a viability, T/C [31] of 63.7%, a viability, T/C [32] of 69.5% and a viability, T/C [33] of 50%. It also gave a viability, T/C [34] of 50.3%, a viability, T/C [35] of 37.2% and a viability, T/C [36] of 24.9%. For the same molecule, the viability, T/C [37] was 46.7%, the viability, T/C [38] was 40.9% and the viability, T/C [39] was 35.7%. The viability, T/C [40] was 31.4%, the viability, T/C [41] was 29.5% and the viability, T/C [42] was 22.2%.

With `CC(C)n1nc(-c2ccc3oc(N)nc3c2)c2c(N)ncnc21` + Cc1nc(NC(=O)N2CCCC2C(N)=O)sc1-c1ccnc(C(C)(C)C(F)(F)F)c1 the IC50 [1] was 0.0183 µM, the IC50 [2] was 0.0126 µM and the IC50 [3] was 0.000358 µM. It also gave an IC50 [4] of under 0.000316 µM, an IC50 [5] of under 0.000316 µM and an IC50 [6] of under 0.000316 µM. It also gave a viability, T/C (second compound 0.0316 µM, first compound 0.000316 µM) of 79.6%, a viability, T/C (second compound 0.0316 µM, first compound 0.001 µM) of 72.5% and a viability, T/C (second compound 0.0316 µM, first compound 0.00316 µM) of 69.5%. The viability, T/C (second compound 0.0316 µM, first compound 0.01 µM) was 60.3%, the viability, T/C [7] was 41.1% and the viability, T/C [8] was 18.4%. The viability, T/C (second compound 0.1 µM, first compound 0.000316 µM) was 61.9%, the viability, T/C (second compound 0.1 µM, first compound 0.001 µM) was 66.6% and the viability, T/C (second compound 0.1 µM, first compound 0.00316 µM) was 62.1%. For the same molecule, the viability, T/C (second compound 0.1 µM, first compound 0.01 µM) was 52.9%, the viability, T/C [13] was 35.5% and the viability, T/C [14] was 15.7%. For the same molecule, the viability, T/C (second compound 0.316 µM, first compound 0.000316 µM) was 47.2%, the viability, T/C (second compound 0.316 µM, first compound 0.001 µM) was 54% and the viability, T/C (second compound 0.316 µM, first compound 0.00316 µM) was 45.2%. For the same molecule, the viability, T/C (second compound 0.316 µM, first compound 0.01 µM) was 40.6%, the viability, T/C [19] was 25.9% and the viability, T/C [20] was 12.7%. The viability, T/C (second compound 1 µM, first compound 0.000316 µM) was 29.1%, the viability, T/C (second compound 1 µM, first compound 0.001 µM) was 24.7% and the viability, T/C (second compound 1 µM, first compound 0.00316 µM) was 38.1%. The viability, T/C (second compound 1 µM, first compound 0.01 µM) was 22.4%, the viability, T/C [25] was 16.4% and the viability, T/C [26] was 9.37%. The viability, T/C (second compound 3.16 µM, first compound 0.000316 µM) was 16%, the viability, T/C (second compound 3.16 µM, first compound 0.001 µM) was 15.7% and the viability, T/C (second compound 3.16 µM, first compound 0.00316 µM) was 12.4%. The viability, T/C (second compound 3.16 µM, first compound 0.01 µM) was 17.6%, the viability, T/C [31] was 9.92% and the viability, T/C [32] was 4.95%. For the same molecule, the viability, T/C (second compound 10 µM, first compound 0.000316 µM) was 7.13%, the viability, T/C (second compound 10 µM, first compound 0.001 µM) was 7.02% and the viability, T/C (second compound 10 µM, first compound 0.00316 µM) was 8.33%. For the same molecule, the viability, T/C (second compound 10 µM, first compound 0.01 µM) was 6.52%, the viability, T/C [37] was 5.75% and the viability, T/C [38] was 2.9%.
